In patent publication US20260053861A1, “CELL COMPOSITIONS AND METHODS OF USING THE SAME” (THE REGENTS OF THE UNIVERSITY OF CALIFORNIA, priority 2022, published 2026):
Structures can show the parent of a compound that is named as a salt.

Tested on: hPSC-SCs
Settings: not given

Compared with `Cc1cc2c(C(C)C)c(O)c(O)c(C=O)c2c(O)c1-c1c(C)cc2c(C(C)C)c(O)c(O)c(C=O)c2c1O` [Gossypol], `COc1ccc2c(c1OC)C(=O)O[C@@H]2[C@H]1c2cc3c(cc2CCN1C)OCO3` [Hydrastine hydrochloride] is higher in z.score.t: −2.368 for the first, −0.4139 for the second.

Compared with `COc1ccc2c3c([nH]c2c1)C(C)=NCC3.Cl.O.O` [Harmaline hydrochloride dihydrate], `COc1ccc2c(c1)[nH]c1c(C)nccc12.Cl` [Harmine hydrochloride] is lower in z.score.t: 1.306 for the first, −1.122 for the second.

Compared with `Cc1[nH]ccc2c1[nH]c1cc(=O)ccc12` [Harmol hydrochloride monohydrate], `CN1CCC2=C[C@H](O)[C@H]3OC(=O)c4cc5c(cc4[C@H]3[C@@H]21)OCO5` [Hippeastrine hydrobromide] is higher in z.score.t: −0.7233 for the first, 1.178 for the second.

First: CO[C@H](C)[C@](O)(C(=O)OCC1=CCN2CC[C@H](O)[C@@H]12)C(C)C [Heliotrine]
Second: CN1[C@@H]2CC[C@H]1C[C@@H](OC(=O)[C@H](CO)c1ccccc1)C2 [Hyoscyamine (L)]
The z.score.t of the first is higher: −0.3023 for the first, −0.528 for the second.

Compared with `C[N+]1(C)CCOC(O)(c2ccc(-c3ccc(C4(O)C[N+](C)(C)CCO4)cc3)cc2)C1.[Br-].[Br-]` (centres unmarked) [Hemicholinium bromide], `CN1CCCN(C(c2ccccc2)c2ccc(Cl)cc2)CC1` (centres unmarked) [Homochlorcyclizine dihydrochloride] is lower in z.score.t: −0.07901 for the first, −1.66 for the second.

First: COc1ccc([C@@H]2CC(=O)c3c(O)cc(O[C@@H]4O[C@H](CO[C@@H]5O[C@@H](C)[C@H](O)[C@@H](O)[C@H]5O)[C@@H](O)[C@H](O)[C@H]4O)cc3O2)cc1O [Hesperidin]
Second: CC(=O)N(CC(O)CN(C(C)=O)c1c(I)c(C(=O)NCC(O)CO)c(I)c(C(=O)NCC(O)CO)c1I)c1c(I)c(C(=O)NCC(O)CO)c(I)c(C(=O)NCC(O)CO)c1I (centres unmarked) [Iodixanol]
The z.score.t of the first is lower: 0.2399 for the first, 0.7539 for the second.

Compared with `C[N+](C)(C)CCCCCC[N+](C)(C)C.O.O.[Br-].[Br-]` [Hexamethonium dibromide dihydrate], `O=C(NCNC(=O)NC1C(=O)NC(=O)N1CO)NC1C(=O)NC(=O)N1CO` (centres unmarked) [Imidurea] is higher in z.score.t: 0.7913 for the first, 1.224 for the second.

Same assay, conditions: HTS viability of hPSC-SCs in the presence of 30 mM glucose; Prestwick library; Table S4

Compared with `CN(C)Cc1c[nH]c2ccccc12` [Gramine], `NNc1nncc2ccccc12` [Hydralazine hydrochloride] is higher in z.score.t: 1.018 for the first, 1.472 for the second.

Going from `Cn1c(-c2ccc3c(c2)OCO3)cc(=O)c2ccccc21` [Graveoline] to `CN1CCc2cc3c(cc2C1O)OCO3` (centres unmarked) [Hydrastinine hydrochloride], the z.score.t rises from 0.495 to 1.785.

First: COC1=CC(=O)C[C@@H](C)[C@]12Oc1c(Cl)c(OC)cc(OC)c1C2=O [Griseofulvin]
Second: COc1ccc([C@@H]2CC(=O)c3c(O)cc(O)cc3O2)cc1O [Hesperetin]
The z.score.t of the first is lower: −0.636 for the first, 1.785 for the second.

First: COc1ccccc1OCC(O)CO (centres unmarked) [Guaifenesin]
Second: CC(CNC1CCCCC1)OC(=O)c1ccccc1 (centres unmarked) [Hexylcaine hydrochloride]
The z.score.t of the first is higher: −0.3023 for the first, −0.6194 for the second.

Going from `N=C(N)N/N=C/c1c(Cl)cccc1Cl` [Guanabenz acetate] to `N=C(N)NC(=O)Cc1c(Cl)cccc1Cl` [Guanfacine hydrochloride], the z.score.t rises from 0.5179 to 0.9047.

Going from `CC1(C)O[C@@H]2C[C@H]3[C@@H]4CCC5=CC(=O)CC[C@]5(C)[C@@]4(F)[C@@H](O)C[C@]3(C)[C@]2(C(=O)CCl)O1` [Halcinonide] to `C[C@]12CCC(=O)C=C1CC[C@@H]1[C@@H]2[C@@H](O)C[C@@]2(C)[C@H]1CC[C@]2(O)C(=O)CO` [Hydrocortisone base], the z.score.t rises from 1.238 to 1.76.

Compared with `CCCCN(CCCC)CCC(O)c1cc2c(Cl)cc(Cl)cc2c2cc(C(F)(F)F)ccc12` (centres unmarked) [Halofantrine hydrochloride], `CCN(CC)CCNc1ccc(CO)c2sc3ccccc3c(=O)c12` [Hycanthone] is higher in z.score.t: −1.422 for the first, −0.2904 for the second.

Going from `O=C(CCCN1CCC(O)(c2ccc(Cl)cc2)CC1)c1ccc(F)cc1` [Haloperidol] to `OCCOCCN1CCN(C(c2ccccc2)c2ccc(Cl)cc2)CC1` (centres unmarked) [Hydroxyzine dihydrochloride], the z.score.t rises from −1.111 to −0.3011.

Going from `CC1=NCCc2c1[nH]c1cc(O)ccc21.Cl.O.O` [Harmalol hydrochloride dihydrate] to `Cc1cc(=O)oc2cc(O)ccc12` [Hymecromone], the z.score.t rises from −0.7953 to 0.9525.

Going from `C[C@]1(OC(=O)/C=C/c2ccccc2)C[C@@H](O)[C@]2(O)C=CO[C@@H](O[C@@H]3O[C@H](CO)[C@@H](O)[C@H](O)[C@H]3O)[C@@H]21` [Harpagoside] to `CC1CC(OC(=O)c2ccccc2O)CC(C)(C)C1` (centres unmarked) [Homosalate], the z.score.t rises from −0.8347 to −0.751.

Going from `CC(N)CCCC(C)(C)O` (centres unmarked) [Heptaminol hydrochloride] to `CCCCC(CC)CN1CN(CC(CC)CCCC)CC(C)(N)C1` (centres unmarked) [Hexetidine], the z.score.t falls from 0.7415 to −1.372.

Compared with `CC[C@H](c1ccc(O)cc1)[C@@H](CC)c1ccc(O)cc1` [Hexestrol], `CC(C(=O)O)c1ccc(N2Cc3ccccc3C2=O)cc1` (centres unmarked) [Indoprofen] is higher in z.score.t: 0.1469 for the first, 0.1916 for the second.

Compared with `NS(=O)(=O)c1cc2c(cc1Cl)NCNS2(=O)=O` [Hydrochlorothiazide], `NS(=O)(=O)c1cc2c(cc1C(F)(F)F)NCNS2(=O)=O` [Hydroflumethiazide] is lower in z.score.t: 0.1742 for the first, −0.1092 for the second.

Compared with `COc1c2c(cc3c1OCO3)CCN(C)C2` [Hydrocotarnine hydrobromide], `CC[C@H]1CN2CC[C@H]1C[C@H]2[C@H](O)c1ccnc2ccc(OC)cc12` [Hydroquinine hydrobromide hydrate] is lower in z.score.t: 1.168 for the first, 0.1131 for the second.

First: c1ccc2c(c1)OCC(C1=NCCN1)O2 (centres unmarked) [Idazoxan hydrochloride]
Second: CN(C)CCCN1c2ccccc2CCc2ccccc21 [Imipramine hydrochloride]
The z.score.t of the first is higher: −0.03362 for the first, −0.7013 for the second.

Going from `O=c1[nH]c(=O)n([C@H]2C[C@H](O)[C@@H](CO)O2)cc1I` [Idoxuridine] to `CCC(Cc1c(I)cc(I)c(N)c1I)C(=O)O` (centres unmarked) [Iopanoic acid], the z.score.t rises from 0.8757 to 1.279.

First: O=P1(NCCCl)OCCCN1CCCl (centres unmarked) [Ifosfamide]
Second: C[C@@H](O)[C@H]1C(=O)N2C(C(=O)O)=C(SCCN=CN)C[C@H]12 [Imipenem]
The z.score.t of the first is lower: 0.1469 for the first, 0.767 for the second.

Going from `CC1Cc2ccccc2N1NC(=O)c1ccc(Cl)c(S(N)(=O)=O)c1` (centres unmarked) [Indapamide] to `COc1ccc2c(c1)c(CC(=O)O)c(C)n2C(=O)c1ccc(Cl)cc1` [Indomethacin], the z.score.t rises from 0.02534 to 1.045.

First: CC(=O)N(CC(C)C(=O)O)c1c(I)cc(I)c(N)c1I (centres unmarked) [Iocetamic acid]
Second: CC(=O)N(CC(O)CO)c1c(I)c(C(=O)NCC(O)CO)c(I)c(C(=O)NCC(O)CO)c1I (centres unmarked) [Iohexol]
The z.score.t of the first is higher: 0.9178 for the first, −0.07901 for the second.

First: O=C(CCCCC(=O)Nc1c(I)cc(I)c(C(=O)O)c1I)Nc1c(I)cc(I)c(C(=O)O)c1I [Iodipamide]
Second: COCC(=O)Nc1c(I)c(C(=O)NCC(O)CO)c(I)c(C(=O)N(C)CC(O)CO)c1I (centres unmarked) [Iopromide]
The z.score.t of the first is higher: 0.5976 for the first, −0.5992 for the second.

Compared with `C[C@H](O)C(=O)Nc1c(I)c(C(=O)NC(CO)CO)c(I)c(C(=O)NC(CO)CO)c1I` [Iopamidol], `O=C(NCC(O)CO)c1c(I)c(C(=O)NCC(O)CO)c(I)c(N(CCO)C(=O)CO)c1I` (centres unmarked) [Ioversol] is higher in z.score.t: −1.025 for the first, −0.5789 for the second.
